Here are results for four compounds from patent US20220324835A1 (Nurix Therapeutics, Inc., priority 2018, published 2022).

Holding throughout (assay type): cell-based
Experiment [1] has as its system primary human total T-cells. The experiment can be described thus: T-cell activation assessed by cell proliferation (Cell Trace Violet). In a few lines: (§1)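 Primary human T-cells (>95% CD3+, negative selection from PBMC) were pre-incubated with inhibitor (e.g. 10, 1.11, 0.123 μM; DMSO <0.1%) for 1 h at 37 °C. They were then stimulated 48 h with plate-bound OKT3 (coated at 10 μg/mL), alone or with 5 μg/mL soluble anti-CD28. Results are fold change over uninhibited, identically stimulated cells.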

Experiment [2] deals with primary human total T-cells. The experiment can be described thus: T-cell activation assessed by cytokine secretion (GM-CSF, IFNγ, TNFα). In a few lines:
as §1

For experiment [3], the system named is human T-cells with allogenic immature dendritic cells. The experiment can be described thus: Allogenic mixed lymphocyte reaction (MLR), T-cell proliferation. The following applies: 120 h, 5 days, baseline T-cells without Cbl-b inhibitor, read-out: Proliferation, fold change over baseline. In a few lines:
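CFSE-labelled primary human T-cells, preincubated with Cbl-b inhibitor, stimulated by allogenic immature dendritic cells derived from monocytes with GM-CSF (30 ng/mL) and IL-4 (20 ng/mL) over 7 days. Proliferation by flow cytometry, expressed as fold over inhibitor-free baseline; >2-fold counted positive.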

Where [4] appears, read: CD3/CD28 stimulation, CD4 T-cells, read-out: % CP (cell proliferation) (CD4).
Where [5] appears, read: CD3/CD28 stimulation, CD8 T-cells, read-out: % CP (cell proliferation) (CD8).
[6] abbreviates: CD3 alone stimulation, CD8 T-cells, read-out: % CP (cell proliferation) (CD8).
Where [7] appears, read: CD3/CD28 stimulation, read-out: GM-CSF secretion.
[8] abbreviates: CD3/CD28 stimulation, read-out: IFNγ secretion.
Setting [9] is: CD3/CD28 stimulation, read-out: TNFα secretion.
Where [10] appears, read: CD3 alone stimulation, read-out: GM-CSF secretion.
[11] abbreviates: CD3 alone stimulation, read-out: IFNγ secretion.
[12] abbreviates: CD3 alone stimulation, read-out: TNFα secretion.

As for `C[C@H](Sc1nncn1C)c1cccc(NC(=O)c2cc(C(=O)N3CC[C@H](O)C3)ccn2)c1` [Compound 140, 4-[[(3S)-3-hydroxypyrrolidin-1-yl]carbonyl]-N-[3-[(1S)-1-[(4-methyl-4H-1,2,4-triazol-3-yl)sulfanyl]ethyl]phenyl]pyridine-2-carboxamide], the fold induction at 1.11 µM in experiment [1] (setting [4]) was above 4; in experiment [1] (setting [5]) it was above 4; in experiment [1] (setting [6]), above 4; in experiment [2] (setting [7]), 2.01 to 4; in experiment [2] (setting [8]), 2.01 to 3; in experiment [2] (setting [9]), 2.01 to 4. The fold induction at 1.11 µM in experiment [2] (setting [10]) lay within 2.01 to 4; in experiment [2] (setting [11]), 3.01 to 4; in experiment [2] (setting [12]), 1.51 to 2. Moreover, the fold induction at 10 µM is above 4 in experiment [1] (setting [4]); above 4 in experiment [1] (setting [5]); above 4 in experiment [1] (setting [6]); above 4 in experiment [2] (setting [7]); above 4 in experiment [2] (setting [8]); 2.01 to 4 in experiment [2] (setting [9]). Besides, the fold induction at 10 µM is 2.01 to 4 in experiment [2] (setting [10]), above 4 in experiment [2] (setting [11]), 2.01 to 4 in experiment [2] (setting [12]) and below 2 in experiment [3]. Besides, the fold induction at 3 µM in experiment [3] was below 2.
For `C[C@H](Cc1nncn1C)c1cccc(NC(=O)c2cccc(CCO)n2)c1` [Compound 202, 6-(2-hydroxyethyl)-N-[3-[(2R)-1-(4-methyl-4H-1,2,4-triazol-3-yl)propan-2-yl]phenyl]pyridine-2-carboxamide], the fold induction at 1.11 µM in experiment [1] (setting [4]) was below 2; in experiment [1] (setting [5]), below 2; in experiment [1] (setting [6]), below 2; in experiment [2] (setting [7]) it was at most 1.5; in experiment [2] (setting [8]), below 2; in experiment [2] (setting [9]) it was at most 1.5. The fold induction at 1.11 µM in experiment [2] (setting [10]) was at most 1.5; in experiment [2] (setting [11]), below 2; in experiment [2] (setting [12]) it was at most 1.5. Moreover, the fold induction at 10 µM is 3.01 to 4 in experiment [1] (setting [4]); 2.01 to 3 in experiment [1] (setting [5]); below 2 in experiment [1] (setting [6]); 1.51 to 2 in experiment [2] (setting [7]); above 4 in experiment [2] (setting [8]); 1.51 to 2 in experiment [2] (setting [9]). The fold induction at 10 µM in experiment [2] (setting [10]) is 1.51 to 2; in experiment [2] (setting [11]), below 2; in experiment [2] (setting [12]) it was at most 1.5; in experiment [3], below 2. In experiment [3], the fold induction at 3 µM was below 2.
For `C[C@H](Cc1nncn1C)c1cccc(N2Cc3c(ccnc3C3CC3)C2=O)c1` [Compound 257, 4-cyclopropyl-2-[3-[(1R)-1-methyl-2-(4-methyl-1,2,4-triazol-3-yl)ethyl]phenyl]-3H-pyrrolo[3,4-c]pyridin-1-one], the fold induction at 1.11 µM was 2.01 to 3 in experiment [1] (setting [4]); below 2 in experiment [1] (setting [5]); below 2 in experiment [1] (setting [6]); 2.01 to 4 in experiment [2] (setting [7]); below 2 in experiment [2] (setting [8]); 1.51 to 2 in experiment [2] (setting [9]). In addition, the fold induction at 1.11 µM in experiment [2] (setting [10]) was 1.51 to 2; in experiment [2] (setting [11]), below 2; in experiment [2] (setting [12]) it was at most 1.5. Also, the fold induction at 10 µM is above 4 in experiment [1] (setting [4]); 3.01 to 4 in experiment [1] (setting [5]); 3.01 to 4 in experiment [1] (setting [6]); above 4 in experiment [2] (setting [7]); 2.01 to 3 in experiment [2] (setting [8]); 2.01 to 4 in experiment [2] (setting [9]). Also, the fold induction at 10 µM was 2.01 to 4 in experiment [2] (setting [10]), 2.01 to 3 in experiment [2] (setting [11]), at most 1.5 in experiment [2] (setting [12]) and below 2 in experiment [3]. Also, the fold induction at 3 µM in experiment [3] was below 2.
For the compound `C[C@H](Cc1nncn1C)c1ccnc(NC(=O)c2cccc(C(F)(F)F)n2)c1` [Compound 302, (R)-N-(4-(1-(4-methyl-4H-1,2,4-triazol-3-yl)propan-2-yl)pyridin-2-yl)-6-(trifluoromethyl)picolinamide], in experiment [3], the fold induction at 3 µM is below 2 and the fold induction at 10 µM was below 2.
